Paper PMC8155176, “Reversible modulation of circadian time with chronophotopharmacology” (Nature Communications, 2021)
“Also recorded” adds a separate entry of the source. Where two headings read alike, the source gives them in different places.

What was measured:
CKIα = target: T1, CKIα (Homo sapiens, UniProt P48729); assay: In vitro kinase assay (Kinase Glo), CKIα; assay type: biochemical
T1 construct: purchased Invitrogen PV3850
Method: A stock solution of 7.4 mM in DMSO was prepared and thermally adapted by heating to c.a. 100 °C for 1 min. Two series of eight samples were prepared with consecutive three-time dilutions from the stock solution. One of the series (‘dark’ samples) was prepared in dark Eppendorf tube, the other series (‘light’ samples) was pre-irradiated with UV light (365 nm, UV lamp Spectroline, ENB-280/FE, 1 × 8 Watt) for 45 min. For compound 9, 1 mM solution in DMSO was thermally adapted by heating to 80 °C for 2 min and split into two vials. One vial was kept in the dark and the other was irradiated with green light (530 nm, 3x Nichia NCSG219B-V1, 3 × 550 mW, Sahlmann Photochemical Solutions) for 60 min. Both dark-kept and irradiated samples were subjected to 8-point 3-fold dilutions. All the solutions were applied to the well plate under a red lamp in the dark room in order to prevent ambient-light-induced photo-isomerization.
The assays were performed on a white, solid-bottom 384-well plates. The total volume for the reaction is 10.5 µl. Firstly, a solution of CKI and peptide was added to the bottom of the well (9 µL). Next, a corresponding solution of the compound (0.5 μL, final 5% DMSO) followed by 50 μM ATP solution (1 μL) were pipetted into the upper corners of each well. The enzymatic reaction was started by spinning down the plate (1800 x g, 2 min).
By employing this method, all reactions were started at the same time, minimizing variance between different samples. Incubation for 3 h at 30 °C or 2 h at 37 °C allowed for the enzymatic phosphorylation of the substrate peptide. As the reaction started, the wells with ‘light’ samples were irradiated with UV light or kept in dark in case of experiment with compound 9. ‘Dark’ (0 min pre-irradiation) wells were covered with an aluminum sticker from the beginning. After the incubation, 10 μL Kinase Glo® (Promega) was applied into the wells and the luminescent signal was recorded by a plate reader (BioTek Synergy H1 or Cytation).
The total volume for the reaction was 10.5 µl. The reaction mixture contained the following: for CKIδ, 4 ng/µl CKIδ (14-520, Eurofins), 50 µM peptide substrate RKKKAEpSVASLTSQCSYSS corresponding to human PER2 Lys659-Ser674, and CKI buffer (40 mM Tris, 10 mM MgCl2, 0.5 mM DTT, 0.1 mg/ml BSA, pH7.4); for CKIα, 1 ng/µl CKIα (PV3850, Invitrogen), 50 µM CKI peptide substrate (60547-1, Anaspec), and CKI buffer.
The data obtained from the in vitro kinase assay was analyzed using GraphPad software, in which the luminescence outcome is normalized. Normalization is done using a luminescent output of the control that contained high concentration of longdaysin (370 µM) as 100% inhibition and DMSO for 0% inhibition. In all graphs, a dose-response fit was used to obtain

[1] = Fatigue on repeated photoisomerization cycles; assay type: physicochemical
Method: Upon reaching PSS distribution with green light, thermal back-isomerization was followed in the dark for 14 h (gray background). After this period, violet light was applied (violet rectangle) for 8 min to confirm the presence of the remaining cis-isomer and estimate cis-to-trans ratio. Green light allowed for switching to the cis-isomer once again (green rectangle), showing that in situ isomerization is possible. c Reversible photochromism in cell culture medium followed at 312 nm absorbance. […] The thermally adapted sample is shown in black (dark), irradiated with green light in vitro (pre-incubation, shown in green), with violet light in cellulo (post-incubation, shown in gray), and with green light in vitro followed by violet light in cellulo in purple. The control experiment with longdaysin is also shown. Luminescence rhythm profiles and data for DMSO-treated cells are shown in Supplementary Figs. 25 and 26, respectively. Luminescence is given in arbitrary units. n = 3 biologically independent samples for the CKIα enzymatic assay (d), n = 2 biologically independent samples for the CKIδ enzymatic assay (d), and n = 3 biologically independent samples for the cellular assay (e). […]
Supplementary Figure 30. […] The spectrum is measured at pH 7.4 (0.1 mM in water) and in presence of 0.1 mM concertation of luciferin. […]

[2] = thermally adapted trans-isomer kept in the dark, read-out: CKIα IC50, dark

T1 sequence (P48729 whole entry): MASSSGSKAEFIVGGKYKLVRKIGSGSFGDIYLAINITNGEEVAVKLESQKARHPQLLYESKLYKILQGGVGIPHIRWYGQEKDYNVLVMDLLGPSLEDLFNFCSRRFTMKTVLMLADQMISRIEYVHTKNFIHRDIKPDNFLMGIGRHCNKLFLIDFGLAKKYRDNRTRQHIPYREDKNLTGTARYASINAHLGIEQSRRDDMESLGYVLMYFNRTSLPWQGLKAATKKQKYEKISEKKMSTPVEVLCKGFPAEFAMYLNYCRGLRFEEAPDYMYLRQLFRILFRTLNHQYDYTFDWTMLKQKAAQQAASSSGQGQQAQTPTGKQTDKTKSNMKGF

Row | Compound | IC50 (CKIα; irradiated with UV light (365 nm) before and during the assay, cis-enriched, read-out: CKIα IC50, light) | IC50 (CKIα; [2]) | fold difference in CKIα inhibition between dark and UV-irradiated sample (CKIα; trans vs cis-enriched (365 nm), 5 is stronger under light, the others weaker) | fatigue upon repeated illumination cycles [1] | potency relative to longdaysin (CKIα; CKI activity) | fold difference in CKIα IC50 between trans-form and cis-isomer (CKIα; green light 530 nm vs dark) | IC50 (CKIα; pre-irradiated with green light (530 nm), 86% cis, read-out: CKIα IC50, 530 nm)
1 | Cc1nn(C)c(C)c1/N=N/c1cccc(CNc2ncnc3c2ncn3C(C)C)c1 [Compound 8] | 24 µM | 3 µM | 8 fold | low fatigue |  |  | 
2 | CC(C)n1cnc2c(NCc3ccc(F)c(/N=N/c4c(F)cccc4F)c3F)ncnc21 [Compound 9] |  | 5.3 µM |  | very low fatigue; also recorded: Almost no fatigue | comparable to that of longdaysin | 1.5 fold | 8.2 µM
